This note sets out measurements from patent US8933018B2, “Boron containing polybasic bacterial efflux pump inhibitors and therapeutic uses thereof” (priority 2011, dated 2015).

In assay [1] the test system is P. aeruginosa, PAM1723, overexpressing the MexAB-OprM efflux pump. Format: cell-based, Pseudomonas aeruginosa. The following applies: lowest EPI concentration giving antibacterial activity with levofloxacin at 1/8 of its MIC, MHB, 20 h at 35° C. The essentials:
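Checkerboard microdilution in Mueller Hinton Broth, with EPI concentrations varied along one axis. The inoculum was 5 times 10^5 CFU/ml from early-log culture. Plates were incubated 20 h at 35° C, and growth was read at 650 nm and by visual inspection.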

Assay [2] concerns P. aeruginosa PAM3062, which overexpresses the MexAB-OprM efflux pump. Format: in vivo, Pseudomonas aeruginosa. The conditions noted are these: neutropenic rats, lung, 1.5 hr IV infusion, 24 hours after start of treatment. The method, then:
Rats are made neutropenic by administration of a 75 mg/kg dose of cyclophosphamide 2 days prior to infection. Immediately prior to infection, rats are anesthetized with isoflurane. Lung infection is established by intratracheal instillation of ˜1×10^7 CFU/lung. P. aeruginosa PAM3062, which overexpresses the MexAB-OprM efflux pump, is used for infection. All treatments are initiated 4 hours after infection and are administered by 1.5 hr IV infusion twice daily. Rats are sacrificed 24 hours after the start of treatment; lungs are homogenized, serially diluted, and plated to determine colony counts.

Structures are written as SMILES. Where two headings read alike, the source gives them in different places.

Consider `NCCN(CCN)C(=O)CC[C@H](N)C(=O)N[C@H](Cc1ccc(C(F)(F)F)cc1)C(=O)Nc1cccc(B(O)O)c1` [Compound 2], for which the “MPC8 (Minimum Potentiating Concentration)” value (“MPC8” for short) in assay [1] is recorded as “B (B = MPC8 of 2.5 μg/ml to less than 10 μg/mL.)”. Also, in assay [2] (levofloxacin 100 (50 BID) mg/kg + EPI 40 (20 BID) mg/kg 24 hr dose), the “Δlog CFU” value is listed as −1.74.

For the compound `NCCN(CCN)C(=O)CC[C@H](N)C(=O)N[C@H](CCc1ccc(C(F)(F)F)cc1)C(=O)Nc1ccc2c(c1)B(O)OC2` [Compound 6, (S)-2-amino-N5,N5-bis(2-aminoethyl)-N1-((R)-1-(1-hydroxy-1,3-dihydrobenzo[c][1,2]oxaborol-6-ylamino)-1-oxo-4-(4-(trifluoromethyl)phenyl)butan-2-yl)pentanediamide], the “MPC8” value in assay [1] is listed as “B (B = MPC8 of 2.5 μg/ml to less than 10 μg/mL.)”. For the same compound, the “Δlog CFU” value in assay [2] (levofloxacin 100 (50 BID) mg/kg + EPI 16 (8 BID) mg/kg 24 hr dose) is reported as −2.99.

As to `NCCN(CCN)C(=O)CC[C@H](N)C(=O)N[C@H](CCc1ccc(C(F)(F)F)cc1)C(=O)Nc1cccc(B(O)O)c1` [Compound 14, 3-((R)-2-((S)-2-amino-5-(bis(2-aminoethyl)amino)-5-oxopentanamido)-4-(4-(trifluoromethyl)phenyl)butanamido)phenylboronic acid], the “MPC8” value in assay [1] is “B (B = MPC8 of 2.5 μg/ml to less than 10 μg/mL.)”. Further, the “Δlog CFU” value in assay [2] (levofloxacin 100 (50 BID) mg/kg + EPI 20 (10 BID) mg/kg 24 hr dose) was −1.13.

Consider `CC1(C)OB(O)c2cc(NC(=O)[C@@H](Cc3ccc(C(F)(F)F)cc3)NC(=O)[C@@H](N)CCC(=O)N(CCN)CCN)ccc21` [Compound 20, (S)-2-Amino-N5,N5-bis(2-aminoethyl)-N1-((R)-1-(1-hydroxy-3,3-dimethyl-1,3-dihydrobenzo[c][1,2]oxaborol-6-ylamino)-1-oxo-3-(4-(trifluoromethyl)phenyl)propan-2-yl)pentanediamide], for which, in assay [1], the “MPC8” value is reported as “A (A = MPC8 of less than 2.5 μg/mL.)”. Moreover, the “Δlog CFU” value in assay [2] (levofloxacin 100 (50 BID) mg/kg + EPI 10 (5 BID) mg/kg 24 hr dose) is −1.75.
